Measurements taken from US5698522A, “6-position modified decapeptide LHRH antagonists” (Abbott Laboratories, priority 1995, dated 1997).
*1 amine or outer side, *2 acyl side, *3 side chain or, on linkers, in order; H or OH if unused. Where a SMILES comes first, the peptide text is derived from it. Side-chain parts run from the residue outwards. [ ]: non-standard residue; d: D form. The star is where a group is joined. Shikimoyl = O=C(C1=C[C@@H](O)[C@@H](O)[C@H](O)C1)*; dPhe(4-Cl) = N[C@H](Cc1ccc(Cl)cc1)C(=O)O; d2Nal = N[C@H](Cc1ccc2ccccc2c1)C(=O)O; Lys(iPr) = CC(C)NCCCC[C@H](N)C(=O)O; NMeY = CN[C@@H](Cc1ccc(O)cc1)C(=O)O; Ethylenediamine = C(CN[*:2])N[*:1]; Pyrazinecarbonyl = O=C(c1cnccn1)*; d3Pal = N[C@H](Cc1cccnc1)C(=O)O; Salicyloyl = O=C(c1ccccc1O)*; Nicotinoyl = O=C(c1cccnc1)*; Picolinoyl = O=C(c1ccccn1)*; dOrn = NCCC[C@@H](N)C(=O)O; 2Furoyl = O=C(c1ccco1)*; CO = O=C([*:1])[*:2]; azaGly = NNC(=O)O

Molecular target: T1, LHRH receptor (Rattus norvegicus, UniProt P30969)
T1 construct: endogenous in cells
T1 sequence (P30969 1-327): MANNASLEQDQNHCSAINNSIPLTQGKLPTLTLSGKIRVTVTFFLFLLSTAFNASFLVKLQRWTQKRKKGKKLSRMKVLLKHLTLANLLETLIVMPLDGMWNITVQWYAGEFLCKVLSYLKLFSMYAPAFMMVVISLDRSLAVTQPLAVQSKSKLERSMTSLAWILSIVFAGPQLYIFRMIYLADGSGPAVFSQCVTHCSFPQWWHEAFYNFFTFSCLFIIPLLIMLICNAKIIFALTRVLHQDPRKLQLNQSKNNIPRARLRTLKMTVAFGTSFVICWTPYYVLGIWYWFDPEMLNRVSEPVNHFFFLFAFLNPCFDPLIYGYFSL
Assay: in vitro LHRH antagonist potency (pA2) against the agonist leuprolide
Type: cell-based
Conditions: negative logarithm of the antagonist concentration which shifts the response curve produced by the agonist leuprolide to two-fold higher concentration
Protocol: Representative compounds of the present invention were evaluated in in vitro tests for receptor binding (pKI) and for LHRH antagonist potency (pA2). The tests employed the methods detailed in F. Haviv, et al., J. Med. Chem., 32: 2340-2344 (1989). The receptor binding affinities (pKI) are the negative logarithms of the equilibtirum dissociation constants (pA2) are the negative logarithms of the concentration of antagonist which shift the response curve roduced by the agonist leuprolide to two-fold higher concentration. (Leuprolide is the LHRH agonist having the structure 5-oxo-Pro^1 -His^2 -Trp^3 -Ser^4 -Tyr^5 -D-Leu^6 -Leu^7 -Arg^8 -Pro^9 -NHEt and is disclosed and claimed in U.S. Pat. No. 4,005,063.) Typically pA2 values of 9.5 or greater are indicative of good LHRH antagonist potency.

SMILES | Kb [nM]
CC(=O)N[C@H](Cc1ccc2ccccc2c1)C(=O)N[C@H](Cc1ccc(Cl)cc1)C(=O)N[C@H](Cc1cccnc1)C(=O)N[C@@H](CO)C(=O)N(C)[C@@H](Cc1ccc(O)cc1)C(=O)N[C@H](CCCCNC(=O)[C@@H](C)NC(=O)C1=C[C@@H](O)[C@@H](O)[C@H](O)C1)C(=O)N[C@@H](CC(C)C)C(=O)N[C@@H](CCCNC(=N)N)C(=O)N1CCC[C@H]1C(=O)N[C@H](C)C(N)=O [Example 48d, NAc-D2Nal^1 -D4ClPhe^2 -D3Pal^3 -Ser^4 -NMeTyr^5 -DLys(N-epsilon-D-Ala-Shikimyl)^6 -Leu^7 -Arg^8 -Pro^9 -DAla^10 NH2] (Ac-[d2Nal][dPhe(4-Cl)][d3Pal]S[NMeY][dK]([dA-Shikimoyl])LRP[dA]-NH2) | 0.0126
CC(=O)N[C@H](Cc1ccc2ccccc2c1)C(=O)N[C@H](Cc1ccc(Cl)cc1)C(=O)N[C@H](Cc1cccnc1)C(=O)N[C@@H](CO)C(=O)N(C)[C@@H](Cc1ccc(O)cc1)C(=O)N[C@H](CCCCNC(=O)NNC(=O)c1ccco1)C(=O)N[C@@H](CC(C)C)C(=O)N[C@@H](CCCNC(=N)N)C(=O)N1CCC[C@H]1C(=O)N[C@H](C)C(N)=O [Example 37a, NAc-D2Nal^1 -D4ClPhe^2 -D3Pal^3 -Ser^4 -NMeTyr^5 -DLys(N-epsilon-Azagly-2-Furoyl)^6 -Leu^7 -Arg^8 -Pro^9 -DAla^10 NH2] (Ac-[d2Nal][dPhe(4-Cl)][d3Pal]S[NMeY][dK]([azaGly-2Furoyl])LRP[dA]-NH2) | 0.0166
CC(=O)N[C@H](Cc1ccc2ccccc2c1)C(=O)N[C@H](Cc1ccc(Cl)cc1)C(=O)N[C@H](Cc1cccnc1)C(=O)N[C@@H](CO)C(=O)N(C)[C@@H](Cc1ccc(O)cc1)C(=O)N[C@H](CCCCNC(=O)[C@@H](CO)NC(=O)c1ccccn1)C(=O)N[C@@H](CC(C)C)C(=O)N[C@@H](CCCNC(=N)N)C(=O)N1CCC[C@H]1C(=O)N[C@H](C)C(N)=O [Example 48b, NAc-D2Nal^1 -D4ClPhe^2 -D3Pal^3 -Ser^4 -NMeTyr^5 -DLys(N-epsilon-D-Ser-Picolinyl)^6 -Leu^7 -Arg^8 -Pro^9 -DAla^10 NH2] (Ac-[d2Nal][dPhe(4-Cl)][d3Pal]S[NMeY][dK]([dS-Picolinoyl])LRP[dA]-NH2) | 0.0372
CC(=O)N[C@H](Cc1ccc2ccccc2c1)C(=O)N[C@H](Cc1ccc(Cl)cc1)C(=O)N[C@H](Cc1cccnc1)C(=O)N[C@@H](CO)C(=O)N(C)[C@@H](Cc1ccc(O)cc1)C(=O)N[C@H](CCCCNC(=O)[C@H](NC(=O)C1=C[C@@H](O)[C@@H](O)[C@H](O)C1)[C@H](C)O)C(=O)N[C@@H](CC(C)C)C(=O)N[C@@H](CCCNC(=N)N)C(=O)N1CCC[C@H]1C(=O)N[C@H](C)C(N)=O [Example 48c, NAc-D2Nal^1 -D4ClPhe^2 -D3Pal^3 -Ser^4 -NMeTyr^5 -DLys(N-epsilon-D-Thr-Shikimyl)^6 -Leu^7 -Arg^8 -Pro^9 -DAla^10 NH2] (Ac-[d2Nal][dPhe(4-Cl)][d3Pal]S[NMeY][dK]([dT-Shikimoyl])LRP[dA]-NH2) | 0.0288
CC(=O)N[C@@H](CO)C(=O)NCCCC[C@@H](NC(=O)[C@H](Cc1ccc(O)cc1)N(C)C(=O)[C@H](CO)NC(=O)[C@@H](Cc1cccnc1)NC(=O)[C@@H](Cc1ccc(Cl)cc1)NC(=O)[C@@H](Cc1ccc2ccccc2c1)NC(C)=O)C(=O)N[C@@H](CC(C)C)C(=O)N[C@@H](CCCNC(=N)N)C(=O)N1CCC[C@H]1C(=O)N[C@H](C)C(N)=O [Example 9, NAc-D2Nal^1 -D4ClPhe^2 -D3Pal^3 -Ser^4 -NMeTyr^5 -DLys(N-epsilon-Ser-Acetyl)^6 -Leu^7 -Arg^8 -Pro^9 -DAla^10 NH2] (Ac-[d2Nal][dPhe(4-Cl)][d3Pal]S[NMeY][dK]([Ser-Ac])LRP[dA]-NH2) | 0.00891
CC(=O)N[C@H](Cc1ccc2ccccc2c1)C(=O)N[C@H](Cc1ccc(Cl)cc1)C(=O)N[C@H](Cc1cccnc1)C(=O)N[C@@H](CO)C(=O)N(C)[C@@H](Cc1ccc(O)cc1)C(=O)N[C@H](CCCCNC(=O)CNC(=O)c1ccccc1O)C(=O)N[C@@H](CC(C)C)C(=O)N[C@@H](CCCCNC(C)C)C(=O)N1CCC[C@H]1C(=O)N[C@H](C)C(N)=O [Example 19b, NAc-D2Nal^1 -D4ClPhe^2 -D3Pal^3 -Ser^4 -NMeTyr^5 -DLys[N-epsilon-Gly-Salicyl]^6 -Leu^7 -Lys(N-epsilon-Isopropyl)^8 -Pro^9 -DAla^10 NH2] (Ac-[d2Nal][dPhe(4-Cl)][d3Pal]S[NMeY][dK]([Gly-Salicyloyl])L[Lys(iPr)]P[dA]-NH2) | 0.00661
CC(=O)N[C@H](Cc1ccc2ccccc2c1)C(=O)N[C@H](Cc1ccc(Cl)cc1)C(=O)N[C@H](Cc1cccnc1)C(=O)N[C@@H](CO)C(=O)N(C)[C@@H](Cc1ccc(O)cc1)C(=O)N[C@H](CCCNC(=O)CNC(=O)c1cccnc1)C(=O)N[C@@H](CC(C)C)C(=O)N[C@@H](CCCCNC(C)C)C(=O)N1CCC[C@H]1C(=O)N[C@H](C)C(N)=O [Example 54, NAc-D2Nal^1 -D4ClPhe^2 -D3Pal^3 -Ser^4 -NMeTyr^5 -DOrn(N-epsilon-Gly-Nicotinyl)^6 -Leu^7 -Lys(N-epsilon-Isopropyl)^8 -Pro^9 -DAla^10 NH2] (Ac-[d2Nal][dPhe(4-Cl)][d3Pal]S[NMeY][dOrn]([Gly-Nicotinoyl])L[Lys(iPr)]P[dA]-NH2) | 0.0302
CC(=O)N[C@H](Cc1ccc2ccccc2c1)C(=O)N[C@H](Cc1ccc(Cl)cc1)C(=O)N[C@H](Cc1cccnc1)C(=O)N[C@@H](CO)C(=O)N(C)[C@@H](Cc1ccc(O)cc1)C(=O)N[C@H](CCCCNC(=O)CNC(=O)c1cnccn1)C(=O)N[C@@H](CC(C)C)C(=O)N[C@@H](CCCNC(=N)N)C(=O)N1CCC[C@H]1C(=O)N[C@H](C)C(N)=O [Example 51e, NAc-D2Nal^1 -D4ClPhe^2 -D3Pal^3 -Ser^4 -NMeTyr^6 -DLys(N-epsilon-Gly-2-Pyrazinecarbonyl)^6 -Leu^7 -Arg^8 -Pro^9 -DAla^10 NH2] (Ac-[d2Nal][dPhe(4-Cl)][d3Pal]S[NMeY][dK]([Gly-Pyrazinecarbonyl])LRP[dA]-NH2) | 0.00692
CC(=O)N[C@H](Cc1ccc2ccccc2c1)C(=O)N[C@H](Cc1ccc(Cl)cc1)C(=O)N[C@H](Cc1cccnc1)C(=O)N[C@@H](CO)C(=O)N(C)[C@@H](Cc1ccc(O)cc1)C(=O)N[C@H](CCCCNC(=O)[C@H](NC(=O)C1=C[C@@H](O)[C@@H](O)[C@H](O)C1)[C@H](C)O)C(=O)N[C@@H](CC(C)C)C(=O)N[C@@H](CCCNC(=N)N)C(=O)N1CCC[C@H]1C(=O)N[C@H](C)C(N)=O [Example 38d, NAc-D2Nal^1 -D4ClPhe^2 -D3Pal^3 -Ser^4 -NMeTyr^5 -DLys(N-epsilon-DThr-Shikimyl)^6 -Leu^7 -Arg^8 -Pro^9 -DAla^10 NH2] (Ac-[d2Nal][dPhe(4-Cl)][d3Pal]S[NMeY][dK]([dT-Shikimoyl])LRP[dA]-NH2) | 0.02
CC(=O)N[C@H](Cc1ccc2ccccc2c1)C(=O)N[C@H](Cc1ccc(Cl)cc1)C(=O)N[C@H](Cc1cccnc1)C(=O)N[C@@H](CO)C(=O)N(C)[C@@H](Cc1ccc(O)cc1)C(=O)N[C@H](CCCNC(=O)CNC(=O)c1cccnc1)C(=O)N[C@@H](CC(C)C)C(=O)N[C@@H](CCCNC(=N)N)C(=O)N1CCC[C@H]1C(=O)N[C@H](C)C(N)=O [Example 49a, NAc-D2Nal^1 -D4ClPhe^2 -D3Pal^3 -Ser^4 -NMeTyr^5 -DOrn(N-epsilon-Gly-Nicotinyl)^6 -Leu^7 -Arg^8 -Pro^9 -DAla^10 NH2] (Ac-[d2Nal][dPhe(4-Cl)][d3Pal]S[NMeY][dOrn]([Gly-Nicotinoyl])LRP[dA]-NH2) | 0.0155
CC(=O)N[C@H](Cc1ccc2ccccc2c1)C(=O)N[C@H](Cc1ccc(Cl)cc1)C(=O)N[C@H](Cc1cccnc1)C(=O)N[C@@H](CO)C(=O)N(C)[C@@H](Cc1ccc(O)cc1)C(=O)N[C@H](CCCCNC(=O)NCCNC(=O)c1cccnc1)C(=O)N[C@@H](CC(C)C)C(=O)N[C@@H](CCCCNC(C)C)C(=O)N1CCC[C@H]1C(=O)N[C@H](C)C(N)=O [Example 62, NAc-D2Nal^1 -D4ClPhe^2 -D3Pal^3 -Ser^4 -NMeTyr^5 -DLys(N-epsilon-N'-Carbonyl-Diaminoethane-N"-Nicotinyl)^6 -Leu^7 -Lys(N-epsilon-Isopropyl)^8 -Pro^9 -DAla^10 NH2] (Ac-[d2Nal][dPhe(4-Cl)][d3Pal]S[NMeY][dK]([CO-Ethylenediamine-Nicotinoyl])L[Lys(iPr)]P[dA]-NH2) | 0.0263
CC(=O)N[C@H](Cc1ccc2ccccc2c1)C(=O)N[C@H](Cc1ccc(Cl)cc1)C(=O)N[C@H](Cc1cccnc1)C(=O)N[C@@H](CO)C(=O)N(C)[C@@H](Cc1ccc(O)cc1)C(=O)N[C@H](CCCCNC(=O)NNC(=O)c1cccnc1)C(=O)N[C@@H](CC(C)C)C(=O)N[C@@H](CCCCNC(C)C)C(=O)N1CCC[C@H]1C(=O)N[C@H](C)C(N)=O [Example 3, NAc-D2Nal^1 -D4ClPhe^2 -D3Pal^3 -Ser^4 -NMeTyr^5 -DLys(N-epsilon-Azagly-Nicotinyl)^6 -Leu^7 -Lys(N-epsilon-Isopropyl)^8 -Pro^9 -DAla^10 NH2] (Ac-[d2Nal][dPhe(4-Cl)][d3Pal]S[NMeY][dK]([azaGly-Nicotinoyl])L[Lys(iPr)]P[dA]-NH2) | 0.0049
